Where a name gives a salt, the structure may show the parent alone.
Key:
Format in all cases: physicochemical
[1] = Solvation/hydration by thermogravimetric analysis (TGA); conditions: for hydration or solvation: TGA, ambient to 300° C.
Experimental: Solvation/Hydration was assessed by thermogravimetric analysis (TGA) using a TA Instruments Hi-Res TGA 2950 instrument measuring the weight loss of a 8.8 mg sample in an open platinum pan. The sample was heated at 20° C./min from ambient to 300° C. utilizing a nitrogen furnace purge gas.

[2] = Solid state stability and excipient compatibility of the lactose monohydrate blend; conditions: for % main band remaining versus control: micronised, 1:100 blend with lactose monohydrate, control 5° C./0% humidity
Experimental: In order to test for solid state stability and excipient compatibility, a sample of the xinafoate salt was micronised by jet milling (particle size: D10=0.24 μm, D50=1.15 μm, D90=4.29 μm) and the resulting powder was blended at a 1:100 weight ratio with lactose monohydrate (Respitose grade SV008). Samples were stored for 12 weeks at 25° C./60% relative humidity and 40° C./75% relative humidity and assayed for remaining drug content and impurities at 4, 8 and 12 weeks. A control sample was stored at 5° C./0% humidity.

[3] = Solid form after micronisation using jet milling; conditions: following micronisation using jet milling
[4] = Hygroscopicity by dynamic vapour sorption
Experimental: Hygroscopicity was assessed using dynamic vapour sorption equipment (Surface Measurement Systems Ltd, model DVS-1). The analysis was conducted at 30° C. with a nitrogen gas flow of 200 cc/min. Water sorption and desorption were determined in the range 0 to 90% relative humidity (RH) using 15% RH intervals. Exposure was for a minimum of 2 hours at each humidity or until the rate of weight change was less than 0.0003%/minute (averaged over 10 minutes). Sample weight was 12.6 mg. The sample was weighed using a CAHN D-200, seven place digital recording balance, which is an integral part of the equipment.

[5] = lactose blend, up to 12 weeks at 25° C./60% RH and 40° C./75% RH

| hydration or solvation [1] | % main band remaining versus control ([2]; 25° C./60% RH, 4 weeks) [%] | % main band remaining versus control ([2]; 25° C./60% RH, 8 weeks) [%] | % main band remaining versus control ([2]; 25° C./60% RH, 12 weeks) [%] | % main band remaining versus control ([2]; 40° C./75% RH, 4 weeks) [%] | % main band remaining versus control ([2]; 40° C./75% RH, 8 weeks) [%] | % main band remaining versus control ([2]; 40° C./75% RH, 12 weeks) [%] | change in physical form during storage [2, 5] | degradation during storage [2, 5] | change in solid form [3] | hygroscopicity ([4]; 0 to 90% RH, 30° C.) | water sorption ([4]; 90% RH, 30° C., before micronisation) [%] | water sorption ([4]; 90% relative humidity, following micronisation using jet milling) [%] | Structure (SMILES) | solvate formation ([1]; nine solvents tested) | change in degree of crystallinity [3] |
| --- | --- | --- | --- | --- | --- | --- | --- | --- | --- | --- | --- | --- | --- | --- | --- |
| hydrates to form a hemihydrate | – | – | – | – | – | – | – | – | – | – | – | – | CNC(=O)COc1cccc(Nc2ncc(F)c(Nc3ccc4c(c3)NC(=O)C(F)(F)O4)n2)c1 [free base, N4-[(2,2-difluoro-4H-benzo[1,4]oxazin-3-one)-6-yl]-5-fluoro-N2-[3-(methylaminocarbonylmethyleneoxy)phenyl]-2,4-pyrimidinediamine] | formed a different solvated form in each of nine solvents tested | – |
| does not show any hydration or salvation | 100.2 | 99.9 | 100.1 | 100.4 | 100.0 | 100.0 | no change in physical form was detected | no significant degradation was observed | no change in solid form | essentially non-hygroscopic | 0.6 | 0.9 | CNC(=O)COc1cccc(Nc2ncc(F)c(Nc3ccc4c(c3)NC(=O)C(F)(F)O4)n2)c1 [xinafoate salt, xinafoate salt of N4-[(2,2-difluoro-4H-benzo[1,4]oxazin-3-one)-6-yl]-5-fluoro-N2-[3-(methylaminocarbonylmethyleneoxy)phenyl]-2,4-pyrimidinediamine] | – | negligible decrease in the degree of crystallinity |

From patent US8486935B2, “Xinafoate salt of N4-(2,2-difluoro-4H-benzo[1,4]oxazin-3-one)-6-yl]-5-fluoro-N2-[3-(methylaminocarbonylmethyleneoxy)phenyl]2,4-pyrimidinediamine” (Rigel Pharmaceuticals, Inc., priority 2007, dated 2013)
